For 49 molecules, EC50 results are on record in US10183021B2, “sGC stimulators” (Ironwood Pharmaceuticals, Inc., priority 2013, dated 2019).

The target of the test is soluble guanylate cyclase (sGC) (Homo sapiens (Human), UniProt Q02108+Q02153). As to the kind of experiment: sGC-HEK-cGMP assay, new protocol with DETA-NONOate, LC/MS detection (Example 2C). The conditions noted are these: read-out: Absolute EC50 (uM) - binned. The format is cell-based.
Sequence of soluble guanylate cyclase (sGC) (Q02153 whole entry): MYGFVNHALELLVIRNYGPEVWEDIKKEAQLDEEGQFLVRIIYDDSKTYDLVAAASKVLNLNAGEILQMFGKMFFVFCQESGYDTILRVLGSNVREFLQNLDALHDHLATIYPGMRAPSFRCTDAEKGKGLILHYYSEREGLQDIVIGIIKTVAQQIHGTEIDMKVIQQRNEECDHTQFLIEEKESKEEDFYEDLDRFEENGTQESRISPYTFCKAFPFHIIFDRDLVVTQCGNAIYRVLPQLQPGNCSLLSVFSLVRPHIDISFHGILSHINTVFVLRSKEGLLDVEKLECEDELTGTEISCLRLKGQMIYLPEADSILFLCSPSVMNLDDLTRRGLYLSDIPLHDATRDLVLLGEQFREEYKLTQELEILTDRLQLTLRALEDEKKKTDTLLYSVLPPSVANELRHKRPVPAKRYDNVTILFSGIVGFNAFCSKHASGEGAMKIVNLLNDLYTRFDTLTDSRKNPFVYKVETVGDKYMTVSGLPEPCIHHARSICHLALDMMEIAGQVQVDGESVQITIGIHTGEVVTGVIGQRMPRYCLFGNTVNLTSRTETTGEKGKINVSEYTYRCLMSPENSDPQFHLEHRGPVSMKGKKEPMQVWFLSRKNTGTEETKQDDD
Sequence of soluble guanylate cyclase (sGC) (Q02108 whole entry): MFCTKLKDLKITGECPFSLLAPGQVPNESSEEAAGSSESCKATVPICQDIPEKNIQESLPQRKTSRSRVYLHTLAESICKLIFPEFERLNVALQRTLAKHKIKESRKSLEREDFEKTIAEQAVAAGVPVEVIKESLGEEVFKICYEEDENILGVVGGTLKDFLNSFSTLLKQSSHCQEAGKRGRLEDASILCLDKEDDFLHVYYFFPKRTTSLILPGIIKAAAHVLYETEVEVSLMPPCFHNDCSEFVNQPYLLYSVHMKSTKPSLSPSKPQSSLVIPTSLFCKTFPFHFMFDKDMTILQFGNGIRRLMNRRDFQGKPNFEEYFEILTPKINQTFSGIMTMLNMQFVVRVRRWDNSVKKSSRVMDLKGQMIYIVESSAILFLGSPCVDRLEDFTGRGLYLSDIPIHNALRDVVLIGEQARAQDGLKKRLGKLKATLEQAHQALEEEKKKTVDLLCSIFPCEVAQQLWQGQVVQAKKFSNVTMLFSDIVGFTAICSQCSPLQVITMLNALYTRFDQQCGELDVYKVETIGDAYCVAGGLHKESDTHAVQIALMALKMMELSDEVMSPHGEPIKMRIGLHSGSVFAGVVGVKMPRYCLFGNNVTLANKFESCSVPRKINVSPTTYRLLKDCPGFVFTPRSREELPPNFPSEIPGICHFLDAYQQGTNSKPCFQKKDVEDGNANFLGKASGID

Usually EC50 stands for the concentration needed to bring the measured effect to its halfway point. For `O=C(CC(F)(F)F)Nc1ccnc(-c2cc(-c3ccon3)n(Cc3ccccc3F)n2)n1` [Compound I-471], the EC50 lay within 0.101 to 1 µM.
Regarding `CS(=O)(=O)CS(=O)(=O)Nc1ccnc(-c2cc(-c3ccon3)n(Cc3ccccc3F)n2)n1` [Compound I-472], the 50% effective concentration (EC50) is greater than 1 µM.
On to `N#Cc1cc(-c2ncc(F)c(NCC(O)(C(F)(F)F)C(F)(F)F)n2)nn1Cc1ccccc1F` [Compound I-474], for which the EC50 was greater than 1 µM.
Take `CC(=O)O[C@@H](C(=O)Nc1ccnc(-c2cc(-c3ccon3)n(Cc3ccccc3F)n2)n1)C(F)(F)F` [Compound I-475]: the EC50 was 0.101 to 1 µM.
As for `O=C(O)c1cc(-c2ncc(F)c(NCC(O)(C(F)(F)F)C(F)(F)F)n2)nn1Cc1ccccc1F` [Compound I-476], the EC50 was greater than 1 µM.
The figure for `O=C(Nc1nc(-c2cc(-c3ccon3)n(Cc3ccccc3F)n2)ncc1F)N1CCOCC1` [Compound I-477] is greater than 1 µM; for `O=C(Nc1ccnc(-c2cc(-c3ccon3)n(Cc3ccccc3F)n2)n1)C1(O)CC1` [Compound I-478] it is less than 0.1 µM; for `COCCS(=O)(=O)Nc1ccnc(-c2cc(-c3ccon3)n(Cc3ccccc3F)n2)n1` [Compound I-479] it is 0.101 to 1 µM.
In the case of `CN(CC1(C(=O)O)CC1)c1nc(-c2cc(C#N)n(Cc3ccccc3F)n2)ncc1F` [Compound I-480] it was 0.101 to 1 µM; in that of `CN(CC1(C(=O)O)CC1)c1nc(-c2cc(C(N)=O)n(Cc3ccccc3F)n2)ncc1F` [Compound I-481], greater than 1 µM.
For `O=C1OC(C(F)(F)F)CN1c1ccnc(-c2cc(-c3ccon3)n(Cc3ccccc3F)n2)n1` (stereo not shown) [Compound I-482], the EC50 was greater than 1 µM.
The figure for `O=[N+]([O-])c1cnc(-c2cc(-c3ccon3)n(Cc3ccccc3F)n2)nc1NCC(O)(C(F)(F)F)C(F)(F)F` [Compound I-483] is greater than 1 µM; for `Nc1cnc(-c2cc(-c3ccon3)n(Cc3ccccc3F)n2)nc1NCC(O)(C(F)(F)F)C(F)(F)F` [Compound I-484] it is 0.101 to 1 µM.
In the case of `O=C1CC(Nc2nc(-c3cc(-c4ccon4)n(Cc4ccccc4F)n3)ncc2F)CN1` (stereo not shown) [Compound I-485] it was less than 0.1 µM; in that of `NS(=O)(=O)CCCC(=O)Nc1ccnc(-c2cc(-c3ccon3)n(Cc3ccccc3F)n2)n1` [Compound I-486], greater than 1 µM; in that of `CS(=O)(=O)CCNc1nc(-c2cc(-c3ccon3)n(Cc3ccccc3F)n2)ncc1F` [Compound I-487], less than 0.1 µM.
In the case of `OC(CNc1nc(-c2cc(-c3ccon3)n(Cc3cccc(F)c3F)n2)ncc1F)(C(F)(F)F)C(F)(F)F` [Compound I-488] it was 0.101 to 1 µM.
With `O=C(O)C(O)(CNc1nc(-c2cc(-c3ccon3)n(Cc3cccc(F)c3F)n2)ncc1F)C(F)(F)F` (stereo not shown) [Compound I-489], the EC50 was greater than 1 µM.
In the case of `O=C(CC(O)(C(F)(F)F)C(F)(F)F)Nc1ccnc(-c2cc(-c3ccon3)n(Cc3ccccc3F)n2)n1` [Compound I-490], the EC50 lay within 0.101 to 1 µM.
As for `O=S(=O)(Cc1ccc(F)cc1)Nc1ccnc(-c2cc(-c3ccon3)n(Cc3ccccc3F)n2)n1` [Compound I-491], the EC50 lay within 0.101 to 1 µM.
On to `O=C1Nc2nc(-c3cc(-c4ccon4)n(Cc4ccccc4F)n3)ncc2OC1(C(F)(F)F)C(F)(F)F` [Compound I-492], for which the EC50 lay within 0.101 to 1 µM.
With `O=C(NC1CC1)C(Nc1nc(-c2cc(-c3ccon3)n(Cc3ccccc3F)n2)ncc1F)C(F)(F)F` (stereo not shown) [Compound I-493], the EC50 lay within 0.101 to 1 µM.
The figure for `CC1(C)CCN(c2ccnc(-c3cc(-c4ccon4)n(Cc4ccccc4F)n3)n2)C1=O` [Compound I-494] is 0.101 to 1 µM.
As for `[2H]C([2H])(O)C([2H])([2H])Nc1nc(-c2cc(-c3ccon3)n(Cc3ccccc3F)n2)ncc1F` [Compound I-495], the EC50 was less than 0.1 µM.
With `Cc1nnc(CNc2nc(-c3cc(-c4ccon4)n(Cc4ccccc4F)n3)ncc2F)o1` [Compound I-496], the EC50 is less than 0.1 µM.
The figure for `CC(=O)OCC(=O)Nc1ccnc(-c2cc(-c3ccon3)n(Cc3ccccc3F)n2)n1` [Compound I-497] is 0.101 to 1 µM; for `CC(=O)OCC(=O)Nc1nc(-c2cc(-c3ccon3)n(Cc3ccccc3F)n2)ncc1F` [Compound I-498] it is 0.101 to 1 µM.
In the case of `O=C(CO)Nc1ccnc(-c2cc(-c3ccon3)n(Cc3ccccc3F)n2)n1` [Compound I-499], the EC50 was greater than 1 µM.
In the case of `OC(CNc1ccnc(-c2cc(-c3ccon3)n(Cc3ccccc3F)n2)n1)(C(F)(F)F)C(F)(F)F` [Compound I-500] it was 0.101 to 1 µM; in that of `O=C1CCC(C(F)(F)F)N1c1nc(-c2cc(-c3ccon3)n(Cc3ccccc3F)n2)ncc1F` (stereo not shown) [Compound I-501], greater than 1 µM; in that of `OCC1(Nc2nc(-c3cc(-c4ccon4)n(Cc4ccccc4F)n3)ncc2F)CC1` [Compound I-502], 0.101 to 1 µM.
For the molecule `O=S1(=O)CCCN1c1nc(-c2cc(-c3ccon3)n(Cc3ccccc3F)n2)ncc1F` [Compound I-503], the EC50 lay in the range of 0.101 to 1 µM.
In the case of `O=C1OCC(C(F)(F)F)N1c1ccnc(-c2cc(-c3ccon3)n(Cc3ccccc3F)n2)n1` (stereo not shown) [Compound I-504] it was greater than 1 µM; in that of `CC(C)S(=O)(=O)Nc1nc(-c2cc(-c3ccon3)n(Cc3ccccc3F)n2)ncc1F` [Compound I-505], 0.101 to 1 µM; in that of `Oc1nc(-c2cc(-c3ccon3)n(CCC(F)(F)F)n2)ncc1F` [Compound I-507], greater than 1 µM.
The figure for `CC(C)C(Nc1nc(-c2cc(-c3ccon3)n(Cc3ccccc3F)n2)ncc1F)C(=O)NC1CC1` (stereo not shown) [Compound I-508] is less than 0.1 µM.
In the case of `Fc1ccccc1Cn1nc(-c2ncc(F)c(NCCSC(F)(F)F)n2)cc1-c1ccon1` [Compound I-509] it was less than 0.1 µM; in that of `COC(=O)CS(=O)(=O)Nc1ccnc(-c2cc(-c3ccon3)n(Cc3ccccc3F)n2)n1` [Compound I-510], 0.101 to 1 µM.
In the case of `NC(=O)CNc1nc(-c2cc(-c3ccon3)n(CCC(F)(F)F)n2)ncc1F` [Compound I-511], the EC50 was greater than 1 µM.
In the case of `CC1(C)CCC(=O)N1c1nc(-c2cc(-c3ccon3)n(Cc3ccccc3F)n2)ncc1F` [Compound I-512] it was greater than 1 µM.
Take `Nc1nc(-c2cc(-c3ccon3)n(CCC(F)(F)F)n2)ncc1F` [Compound I-513]: the EC50 is greater than 1 µM.
Regarding `O=S(=O)(CCNc1nc(-c2cc(-c3ccon3)n(Cc3ccccc3F)n2)ncc1F)C(F)(F)F` [Compound I-514], the EC50 is less than 0.1 µM.
Turning to `NC(=O)C1(CNc2nc(-c3cc(-c4ccon4)n(Cc4ccccc4F)n3)ncc2F)CC1` [Compound I-515], the EC50 is less than 0.1 µM.
The figure for `OC(CNc1nc(-c2cc(-c3ccon3)n(CCC(F)(F)F)n2)ncc1F)(C(F)(F)F)C(F)(F)F` [Compound I-516] is greater than 1 µM.
In the case of `CCN(CC)c1nc(-c2cc(-c3ccon3)n(CCC(F)(F)F)n2)ncc1F` [Compound I-517], the EC50 was greater than 1 µM.
The figure for `NC(CNc1nc(-c2cc(-c3ccon3)n(Cc3ccccc3F)n2)ncc1F)C(F)(F)F` (stereo not shown) [Compound I-518] is less than 0.1 µM; for `CC(C)(C)OC(=O)NCC(=O)Nc1ccnc(-c2cc(-c3ccon3)n(Cc3ccccc3F)n2)n1` [Compound I-519] it is 0.101 to 1 µM; for `NCC(=O)Nc1ccnc(-c2cc(-c3ccon3)n(Cc3ccccc3F)n2)n1` [Compound I-520] it is 0.101 to 1 µM.
The figure for `OCC(F)(F)CNc1nc(-c2cc(-c3ccon3)n(Cc3ccccc3F)n2)ncc1F` [Compound I-521] is less than 0.1 µM.
